Reference: patent US9011882B2, “Dimethylarginine dimethylaminohydrolase inhibitors and methods of use thereof” (The Board of Trustees of the Leland Stanford Junior …, priority 2012, dated 2015)

How the values were obtained:
[1] = system: mouse alveolar epithelial cell; assay: BrdU Cell Proliferation Assay, mouse alveolar epithelial cells; assay type: cell-based; conditions: mouse cell line, FIG. 25
Excerpt: A “vehicle only” sample served as a “no DDAH” control.

[2] = system: Human lung epithelial cell line (A-549); assay: BrdU Cell Proliferation Assay, human alveolar epithelial cells; assay type: cell-based; conditions: FIG. 24
Protocol: Cells were seeded at 5×10^3 cells/well in a 96-well plate (200 μL media per well) & incubated overnight at 37° C./5% CO2. The next day, the conditioned media was aspirated and the cells were PBS-rinsed prior to (fetal bovine) serum starving them for 2 hours followed by 22 hours low serum (0.1% FBS) in order to synchronize them.
On day-3, 2 hours before the end of the 24 hours low serum period, DDAH inhibitors (Proton pump inhibitors; PPIs) were added in a 100 μL solution of 0.1% FBS DMEM. The following DDAH inhibitors were used: Lansoprazole; Esomeprazole; and Rabeprazole. A “vehicle only” sample served as a “no DDAH” control. In addition, Media only (blank control) without cells, and Cells only (background control) were included in the assay. Two hours later, 100 μL of DMEM containing 10% FBS was added to each well in order to serum-stimulate (for 24 hours) the cells and make the total well content to 200 μL. Four hours prior to the end of the 24 hrs, 20 μL of 1:500 diluted Bromodeoxyuridine (BrdU) (diluted in fully-supplemented DMEM) was added to all wells except the “Cells only” control wells.
The incorporation of BrdU into newly synthesized DNA by actively proliferating cells was detected immunochemically using an Antibody directed against BrdU using the recommended protocol and the BrdU Cell Proliferation Assay kit (Millipore; Cat #2750). […]

[3] = system: human microvascular endothelial cells (HMEC-1); assay: Intracellular ADMA by ELISA in endothelial cells; assay type: cell-based; conditions: 20 μM, 24 hours, compared to vehicle control
Protocol: (§1) First, human microvascular endothelial cells (HMEC-1; ATCC) were seeded in 75 cm^2 cell culture flasks and cultured in fully supplemented DMEM (Invitrogen cat #11995; supplemented with 10% fetal bovine serum (FBS), 4 mM HEPES; GIBCO 15630 and penicillin/streptomycin). The cells were incubated at 37° C./5% CO2 until ˜60% confluency. The cells were then washed with phosphate buffered saline (PBS) and plain DMEM (DMEM with no addition of serum or the other supplements) was mixed with esomeprazole (20 μM final concentration from 100 mM stock) and added to the cells. […] After ˜4 hrs of incubation, the media was aspirated from each flask and the cells were cultured in fully supplemented DMEM as described above and incubated at 37° C./5% CO2 for another 20 hrs. The serum was initially withdrawn due to the possibility that esomeprazole would interact with Cys containing serum proteins and fail to internalize at effective concentrations.
After 24 hrs, the cells were harvested. Total cellular protein was estimated as described and ADMA was measured by enzyme-linked immunosorbent assay (ELISA) following the manufacturer's recommendations; DLD Diagnostika, Hamburg, Germany).
as §1, with “FBS,” for “fetal bovine serum (FBS),”, “PBS” for “phosphate buffered saline (PBS)”, “PD 404” for “esomeprazole”, “conc” for “concentration”, “The serum was initially withdrawn due to the possibility that esomeprazole would interact with Cys containing serum proteins and fail to internalize at effective concentrations.” left out
After 24 hours, the cells were harvested. Total cellular protein was estimated as described and ADMA was measured by ELISA following the manufacturer's recommendations; DLD Diagnostika, Hamburg, Germany).

[4] = system: Lung fibroblasts from patients with IPF; assay: Sircol collagen assay, TGF-β stimulated IPF lung fibroblasts; assay type: cell-based, human; conditions: Omeprazole 50 or 100 μM; L-257 50 μM; A83-01 20 μM; 24 hours
Protocol: Cells were seeded at 4×10^4 cells/well in a 6-well plate (1.2 mL media per well) and incubated overnight at 37° C./5% CO2. The next day, the conditioned media was aspirated and the cells were rinsed with phosphate-buffered saline (PBS) prior to (fetal bovine) serum starving them for 2 hours followed by 22 hours low serum (0.1% fetal bovine serum; FBS) in order to synchronize them.
On day-3, the cells were stimulated with fully-supplemented media (containing 10% FBS) in the absence or presence of recombinant transforming growth factor-1 (TGF-β1) (at 10 ng/mL final conc) in the presence of a DDAH inhibitor (DDAHi; the proton pump inhibitor (PPI) lansoprazole at a final concentration of 20 μM) or vehicle for 24 hours.
The acid-soluble collagen content in each well was determined in the conditioned media using the Sircol collagen assay (Accurate Chemical and Scientific Corp; CLRS 1000) following the recommended protocol.
The amount of collagen in each well was estimated from a standard curve and the collagen content in each sample was normalized to total cellular protein from the respective well and was expressed as μg collagen per milligram of protein.
Lung fibroblasts were isolated from patients diagnosed with IPF according to International Standards. Isolated fibroblasts were seeded at 6×10^4 and synchronized the following day.
The acid-soluble collagen content was determined using the Sircol collagen assay (Accurate Chemical and Scientific Corp; CLRS 1000) following the recommended protocol.

[5] = target: T1, human DDAH1 (Homo sapiens (Human), UniProt O94760); assay: Fluorimetric CPM assay of DDAH activity (SMTC substrate); assay type: biochemical; conditions: for inhibition of DDAH activity, CPM fluorometric validation: fresh powders from vendors, vs vehicle
Protocol: The activity of human DDAH1 was quantified using fluorimetric assay by incubating the enzyme with an artificial substrate S-methyl-thiocitrulline (SMTC). DDAH metabolizes SMTC into L-citrulline and methanethiol (CH3—SH). The thiol released from the reaction can be monitored fluorimetrically by adding 7-Diethylamino-3-(4-maleimidophenyl)-4-methylcoumarin (CPM).
The activity of human DDAH1 was quantified using fluorimetric assay by incubating the enzyme with an artificial substrate S-methyl-thiocitrulline (SMTC), as described in Example 1. DDAH metabolizes SMTC into L-citrulline and methanethiol (CH3—SH). The thiol released from the reaction can be monitored fluorimetrically by adding 7-Diethylamino-3-(4-maleimidophenyl)-4-methylcoumarin (CPM).
For the secondary assay, a fluorimetric assay that uses SMTC as a substrate was adapted. DDAH metabolizes SMTC into L-citrulline and methanethiol (CH3—SH). In brief, DDAH (30 nM final concentration) was mixed with SMTC (100 μM final concentration), CPM (50 μM final concentration) and screening buffer (containing a final concentration of 0.01% Triton-X100 and 1 mM EDTA). The reaction mix was added to black 384-well plates to validate primary hits that modulate DDAH activity. The release of CH3—SH was monitored fluorimetrically by adding 7-Diethylamino-3-(4-maleimidophenyl)-4-methylcoumarin (CPM) as described in Linsky (Linsky, T. & Fast, W. A continuous, fluorescent, high-throughput assay for human dimethylarginine dimethylaminohydrolase-1. J Biomol Screen 16, 1089-1097 (2011)).

[6] = target: recombinant human DDAH1 (rhDDAH1) (Homo sapiens (Human), UniProt O94760); assay: Colorimetric L-citrulline assay of DDAH activity (ADMA substrate; high throughput screen and orthogonal validation); assay type: biochemical; conditions: fresh powders, FIG. 3, vs vehicle
Protocol: (§2) The enzymatic activity of DDAH was monitored using a colorimetric assay that detects product (L-citrulline) formation from the substrate ADMA. In brief, recombinant human DDAH1 (rhDDAH1) was mixed with ADMA in the presence of screening buffer in 384-well plates. Plates were incubated at 37° C. for 4 hours. Subsequently, color developing reagent (containing 2 volumes of Antipyrine and 1 volume of 2,3-Butanedione oxime reagents) was added and the plates were incubated at 60° C. for 90 min prior to spinning them at 1,500 rpm for 5 min. In this assay absorbance is proportional to the concentration of citrulline generated by DDAH, and was measured using an AnalystGT plate reader at 485 nm using a dichroic beamsplitter.
as §2, with “ADMA, as described in Example 1.” for “ADMA.”, “antipyrine” for “Antipyrine”
The L-citrulline assay was based upon an original test-tube method developed by Prescott and Jones in 1969 (Prescott, L. M. & Jones, M. E. Modified methods for the determination of carbamyl aspartate. Anal Biochem 32, 408-419 (1969)), which was adapted and optimized for a microplate format. Subsequently, the activity of DDAH was quantified by detecting its conversion of ADMA to citrulline using the optimized protocol. The assay was scaled up to a 384-well format for high throughput chemical screening.
Over 130,000 small molecules deposited in the Stanford High-throughput Bioscience Center (HTBC) were screened using the enzymatic assay to identify chemicals that regulate DDAH activity. In brief, recombinant human DDAH1 (rhDDAH1) was mixed with ADMA in the presence of screening buffer in 384-well plates using a Staccato multidrop. Small molecules (100 nL each) were then added to the wells using a robotic arrayer to yield a final compound screening concentration of up to 50 μM. Plates were incubated at 37° C. for 4 hours. Subsequently, color developing reagent (containing 2 volumes of Antipyrine and 1 volume of 2,3-Butanedione oxime reagents) was added using Velocity 11 system and the plates were sealed using an automated plate sealer. Finally, color was developed by incubating the plates at 60° C. for 90 minutes prior to spinning them at 1,500 rpm for 5 minutes. In this assay absorbance is proportional to the concentration of citrulline generated by DDAH, and was measured using an AnalystGT plate reader at 485 nm using a dichroic beamsplitter. The signal-to-noise ratio of separation was calculated using an established formula in Zhang. (Zhang, J. H., Chung, T. D. & Oldenburg, K. R. A Simple Statistical Parameter for Use in Evaluation and Validation of High Throughput Screening Assays. J Biomol Screen 4, 67-73 (1999)).
In brief, various amounts of rhDDAH1 (0.1 to 10 μM) were incubated with various concentrations of ADMA (1 μM to 8 mM) for various time points (30 min to 10 h) at room temperature or 37° C. […] The reactions were stopped and color was developed as described above followed by incubation at 60° C. for 90 min. Absorbance, proportional to DDAH activity, was measured at 485 nm±20 nm. In order to screen the entire library, the biochemical properties of the assay were optimized, as described above. The technique was modified so as to reduce the number of steps and facilitate robotic handling and throughput. Subsequently, HTS was performed using 384-well plates. […]

[7] = target: T1, human DDAH1; assay: Time-dependence kinetics study of DDAH inhibition; assay type: biochemical

T1 sequence (O94760 whole entry): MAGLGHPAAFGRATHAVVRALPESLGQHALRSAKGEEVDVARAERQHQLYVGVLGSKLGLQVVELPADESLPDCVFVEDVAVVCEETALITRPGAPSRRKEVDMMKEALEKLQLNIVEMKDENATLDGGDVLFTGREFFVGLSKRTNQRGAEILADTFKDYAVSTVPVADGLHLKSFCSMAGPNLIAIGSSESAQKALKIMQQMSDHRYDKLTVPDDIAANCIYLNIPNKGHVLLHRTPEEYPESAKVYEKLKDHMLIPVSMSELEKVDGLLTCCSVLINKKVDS
Chain of recombinant human DDAH1 (rhDDAH1) (O94760 whole entry): as above

COCCNC(N)=NCCC[C@H](N)C(=O)O [L-257]
incorporation of BrdU [1]: reduced incorporation of BrdU
incorporation of BrdU [2]: reduced incorporation of BrdU
increase in intracellular ADMA [3]: 68%
TGF-β induced collagen synthesis [4]: reduced TGF-β induced collagen synthesis

Cc1cccc(-c2nn(C(=S)Nc3ccccc3)cc2-c2ccnc3ccccc23)n1 [A83-01]
TGF-β induced collagen synthesis [4]: reduced TGF-β induced collagen synthesis

COc1ccc2nc([S@@+]([O-])Cc3ncc(C)c(OC)c3C)[nH]c2c1 [Esomeprazole]
inhibition of DDAH activity, CPM fluorometric validation [5]: inhibited DDAH activity significantly
increase in intracellular ADMA [3]: ~37%
inhibition of DDAH activity, orthogonal colorimetric assay [6]: significantly inhibited DDAH activity

O=C(O)c1cc[c]([Hg][Cl])cc1 [chloromercuribenzoate, 4-chloromercuribenzoic acid, reference compound]
inhibition of DDAH activity, CPM fluorometric validation [5]: confirmed known DDAH inhibitors
mode of inhibition in time-dependence kinetics [7]: progressive inhibition

CC(=O)[O-].[Hg+][c]1ccccc1 [phenylmercuric acetate]
IC50 [5]: < 780 nM
mode of inhibition in time-dependence kinetics [7]: progressive inhibition
